Consider 31 compounds from US11066396B2 (priority 2016, dated 2021).

Broadly, the IC50 is the concentration at which inhibition is half-maximal.

One test concerns the target HDAC8 (Homo sapiens (Human), UniProt Q9BY41). Conditions: read-out: HDAC8 IC50.
Another test deals with HDAC1 (Homo sapiens (Human), UniProt Q13547). Conditions: read-out: HDAC1 IC50.
HDAC1, sequence (Q13547 whole entry): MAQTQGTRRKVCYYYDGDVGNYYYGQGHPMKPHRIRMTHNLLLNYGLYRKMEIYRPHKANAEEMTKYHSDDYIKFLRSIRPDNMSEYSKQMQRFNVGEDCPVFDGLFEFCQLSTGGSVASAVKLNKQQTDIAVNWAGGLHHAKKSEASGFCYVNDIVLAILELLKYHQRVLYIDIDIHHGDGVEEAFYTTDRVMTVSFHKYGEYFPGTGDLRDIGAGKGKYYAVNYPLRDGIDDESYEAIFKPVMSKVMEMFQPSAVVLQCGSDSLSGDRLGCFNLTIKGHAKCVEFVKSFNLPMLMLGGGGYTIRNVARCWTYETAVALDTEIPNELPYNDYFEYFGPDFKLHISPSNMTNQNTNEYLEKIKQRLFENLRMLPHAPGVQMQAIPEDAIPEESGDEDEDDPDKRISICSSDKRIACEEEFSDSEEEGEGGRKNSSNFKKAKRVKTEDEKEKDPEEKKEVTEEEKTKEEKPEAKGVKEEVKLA

HDAC8, sequence (Q9BY41 whole entry): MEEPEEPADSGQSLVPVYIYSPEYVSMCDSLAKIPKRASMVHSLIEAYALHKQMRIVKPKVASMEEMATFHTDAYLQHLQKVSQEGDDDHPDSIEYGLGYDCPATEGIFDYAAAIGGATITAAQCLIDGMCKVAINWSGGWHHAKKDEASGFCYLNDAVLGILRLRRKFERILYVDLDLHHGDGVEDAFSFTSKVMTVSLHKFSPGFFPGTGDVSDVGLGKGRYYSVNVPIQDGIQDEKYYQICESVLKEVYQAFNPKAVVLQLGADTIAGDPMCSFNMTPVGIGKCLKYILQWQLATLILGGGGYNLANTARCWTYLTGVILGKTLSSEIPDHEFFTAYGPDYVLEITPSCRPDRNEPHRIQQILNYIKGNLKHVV
Procedure for HDAC1: Assay protocol: In brief, compounds were titrated in 100% DMSO via accoustic dispensing directly to the assay plate using the ECHO 550 [Labcyte]. HDAC enzymes at the concentrations indicated above were added in assay buffer to the assay plates containing the compounds using a Combi [Thermo Scientific]. The wells were mixed, and the plates were allowed to pre-incubate at ambient temperature for 3 h. After the 3 h, the appropriate substrate, at the concentrations indicated above, was added to the wells using a Combi. The wells were mixed, and the plates were allowed to incubate at ambient temperature for 1 h. After the 1 h, the appropriate Developer/stop solution was added to the wells using a Combi. The wells were mixed, and the plates were allowed to incubate at ambient temperature for 1 h. […] Data were analyzed using 4P curve fitting with Activity Base [IDBS] software.

On to `O=C1CCCC(c2ccccc2)N1c1ccc(-c2noc(C(F)(F)F)n2)cn1` (centres unmarked) [Example 128, 6-phenyl-1-(5-(5-(trifluoromethyl)-1,2,4-oxadiazol-3-yl)pyridin-2-yl)piperidin-2-one], for which the half-inhibitory concentration (IC50) worked out at 5.1 µM on HDAC8 and 2.9 µM on HDAC1.
On to `CN1CCN(c2ccc(-c3noc(C(F)(F)F)n3)cn2)[C@@H](c2ccccc2)C1` [Example 134, (S)-3-(6-(4-methyl-2-phenylpiperazin-1-yl)pyridin-3-yl)-5-(trifluoromethyl)-1,2,4-oxadiazole], for which the values for the IC50 on HDAC8 and on HDAC1 were 2.1 µM and 0.36 µM, respectively.
Taken in the same sequence, the figures for `Cc1cccc(CCOc2cc(-c3noc(C(F)(F)F)n3)ccn2)n1` [Example 139, 3-(2-(2-(6-methylpyridin-2-yl)ethoxy)pyridin-4-yl)-5-(trifluoromethyl)-1,2,4-oxadiazole] were 4.6 µM and 3.4 µM.
Regarding `FC(F)(F)c1nc(-c2ccc(N3CCOC[C@@H]3c3ccccc3)nc2)no1` [Example 141, (S)-3-phenyl-4-(5-(5-(trifluoromethyl)-1,2,4-oxadiazol-3-yl)pyridin-2-yl)morpholine], the IC50 on HDAC8 stood at 1.8 µM; at HDAC1, 0.35 µM.
For the compound `FC(F)(F)c1nc(-c2ccc(N3CCOCC3c3cccnc3)nc2)no1` (centres unmarked) [Example 143, 3-(pyridin-3-yl)-4-(5-(5-(trifluoromethyl)-1,2,4-oxadiazol-3-yl)pyridin-2-yl)morpholine], the IC50 at HDAC8 was determined as 2.8 µM; on HDAC1 it was 6.2 µM.
In the same order, the values of `O=C1NCCN(c2ccc(-c3noc(C(F)(F)F)n3)cn2)C1c1cccc(F)c1` (centres unmarked) [Example 153, 3-(3-fluorophenyl)-4-(5-(5-(trifluoromethyl)-1,2,4-oxadiazol-3-yl)pyridin-2-yl)piperazin-2-one] are 0.28 µM and 0.124 µM.
Taken in the same sequence, the figures for `O=C1COC[C@@H](c2ccccc2)N1c1ccc(-c2noc(C(F)(F)F)n2)cc1F` [Example 161, (R)-4-(2-fluoro-4-(5-(trifluoromethyl)-1,2,4-oxadiazol-3-yl)phenyl)-5-phenylmorpholin-3-one] were 2.1 µM and 0.39 µM.
Taken in the same sequence, the figures for `CN1CC(=O)N(c2ccc(-c3noc(C(F)(F)F)n3)cc2)C(c2ccccc2)C1` (centres unmarked) [Example 162, 4-methyl-6-phenyl-1-(4-(5-(trifluoromethyl)-1,2,4-oxadiazol-3-yl)phenyl)piperazin-2-one] were 1.4 µM and 0.85 µM.
As to `O=C1COC[C@@H](c2ccccc2)N1c1cnc(-c2noc(C(F)(F)F)n2)cn1` [Example 164, (R)-5-phenyl-4-(5-(5-(trifluoromethyl)-1,2,4-oxadiazol-3-yl)pyrazin-2-yl)morpholin-3-one], the IC50 on HDAC8 is 6.1 µM; at HDAC1, 2.9 µM.
As for `O=C1COC[C@@H](c2ccccc2)N1c1ccc(-c2noc(C(F)(F)F)n2)nn1` [Example 165, (R)-5-phenyl-4-(6-(5-(trifluoromethyl)-1,2,4-oxadiazol-3-yl)pyridazin-3-yl)morpholin-3-one], the IC50 is 21 µM on HDAC8 and 28 µM on HDAC1.
For `NC(=O)c1ccccc1NCc1ccc(-c2noc(C(F)(F)F)n2)cn1` [Example 174, 2-(((5-(5-(Trifluoromethyl)-1,2,4-oxadiazol-3-yl)pyridin-2-yl)methyl)amino)benzamide], the IC50 came out at 0.7 µM at HDAC8 and 0.3 µM on HDAC1.
As to `O=C1CC[C@@H](CO)N1c1ccc(-c2noc(C(F)(F)F)n2)c(F)c1` [Example 188, (S)-1-(3-Fluoro-4-(5-(trifluoromethyl)-1,2,4-oxadiazol-3-yl)phenyl)-5-(hydroxymethyl)pyrrolidin-2-one], the 50% inhibitory concentration (IC50) on HDAC8 amounted to 0.038 µM; at HDAC1, 0.38 µM.
On to `O=C1CC[C@@H](CN2CCOCC2)N1c1ccc(-c2noc(C(F)(F)F)n2)c(F)c1` [Example 189, (S)-1-(3-Fluoro-4-(5-(trifluoromethyl)-1,2,4-oxadiazol-3-yl)phenyl)-5-(morpholinomethyl)pyrrolidin-2-one], for which the half-maximal inhibitory concentration (IC50) is 6.9 µM at HDAC8 and 15 µM on HDAC1.
In the same order, the values of `FC(F)(F)c1nc(-c2ccnc(OCc3ccno3)c2)no1` [Example 207, 2-(isoxazol-5-ylmethoxy)-4-[5-(trifluoromethyl)-1,2,4-oxadiazol-3-yl]pyridine] are 1.3 µM and 1.5 µM.
For the compound `FC(F)(F)c1nc(-c2ccnc(OCc3cnn4c3OCCC4)c2)no1` [Example 209, 3-[({4-[5-(trifluoromethyl)-1,2,4-oxadiazol-3-yl]pyridin-2-yl}oxy)methyl]-6,7-dihydro-5H-pyrazolo[5,1-b][1,3]oxazine], the IC50 on HDAC8 stood at 4.4 µM; on HDAC1 it was 6.8 µM.
In the same order, the values of `Cn1nccc1COc1cc(-c2noc(C(F)(F)F)n2)ccn1` [Example 221, 2-[(1-methyl-1H-pyrazol-5-yl)methoxy]-4-[5-(trifluoromethyl)-1,2,4-oxadiazol-3-yl]pyridine] are 1.6 µM and 2.8 µM.
With `Cc1nc(COc2cc(-c3noc(C(F)(F)F)n3)ccn2)no1` [Example 225, 2-[(5-methyl-1,2,4-oxadiazol-3-yl)methoxy]-4-[5-(trifluoromethyl)-1,2,4-oxadiazol-3-yl]pyridine], the figures for the IC50 on HDAC8 and on HDAC1 were 0.62 µM and 1.5 µM, respectively.
Taken in the same sequence, the figures for `Cn1c(OCc2ccc(-c3noc(C(F)(F)F)n3)c(F)c2)nc2ccccc21` [Example 235, 2-({3-fluoro-4-[5-(trifluoromethyl)-1,2,4-oxadiazol-3-yl]phenyl}methoxy)-1-methyl-1H-benzimidazole] were 0.77 µM and 0.52 µM.
For the compound `Cn1c(OCc2ccc(-c3noc(C(F)(F)F)n3)c(F)c2)nc2cccnc21` [Example 238, 2-({3-fluoro-4-[5-(trifluoromethyl)-1,2,4-oxadiazol-3-yl]phenyl}methoxy)-3-methyl-3H-imidazo[4,5-b]pyridine], the 50% inhibitory concentration (IC50) at HDAC8 amounted to 1.3 µM; at HDAC1, 0.51 µM.
On to `Fc1cc(COc2nc[nH]n2)ccc1-c1noc(C(F)(F)F)n1` [Example 247, 3-(2-fluoro-4-{[(1H-1,2,4-triazol-3-yl)oxy]methyl}phenyl)-5-(trifluoromethyl)-1,2,4-oxadiazole], for which the results for the 50% inhibitory concentration (IC50) at HDAC8 and at HDAC1 were 1.4 µM and 5.5 µM, respectively.
`O=c1ccc2ccc(Br)cc2n1Cc1ccc(-c2noc(C(F)(F)F)n2)cc1` [Example 321, 7-bromo-1-{4-[5-(trifluoromethyl)-1,2,4-oxadiazol-3-yl]benzyl}quinolin-2(1H)-one]: the half-inhibitory concentration (IC50) on HDAC8 was determined as 2.6 µM; at HDAC1 it was 0.21 µM.
On to `Fc1ccc2ccc(OCc3ccc(-c4noc(C(F)(F)F)n4)cn3)nc2c1` [Example 326, 7-fluoro-2-({5-[5-(trifluoromethyl)-1,2,4-oxadiazol-3-yl]pyridin-2-yl}methoxy)quinoline], for which the values for the half-maximal inhibitory concentration (IC50) at HDAC8 and at HDAC1 were 45 µM and 35 µM, respectively.
`O=C1CCC(c2ccc(-c3noc(C(F)(F)F)n3)cc2)N1c1ccccc1F` (centres unmarked) [Example 329]: the IC50 was found to be 7.9 µM on HDAC8 and 3.9 µM at HDAC1.
Turning to `O=C1CCc2cccnc2N1Cc1ccc(-c2noc(C(F)(F)F)n2)cn1` [Example 330, 1-({5-[5-(trifluoromethyl)-1,2,4-oxadiazol-3-yl]pyridin-2-yl}methyl)-3,4-dihydro-1,8-naphthyridin-2(1H)-one], the values for the concentration for half-maximal inhibition (IC50) at HDAC8 and at HDAC1 were 18 µM and 3.7 µM, respectively.
Taken in the same sequence, the figures for `CC(C)(C)OC(=O)[C@@H]1CCC(=O)N1c1ccc(-c2noc(C(F)(F)F)n2)c(F)c1` [Example 331, tert-butyl 1-{3-fluoro-4-[5-(trifluoromethyl)-1,2,4-oxadiazol-3-yl]phenyl}-5-oxo-L-prolinate] were 19 µM and 4.9 µM.
For the compound `O=C1OC[C@@H](c2ccccc2)N1c1ccc(-c2noc(C(F)(F)F)n2)c(F)c1` [Example 332, (4R)-3-{3-fluoro-4-[5-(trifluoromethyl)-1,2,4-oxadiazol-3-yl]phenyl}-4-phenyl-1,3-oxazolidin-2-one], the IC50 on HDAC8 and on HDAC1 was 4.5 µM in each case.
Take `Cc1noc([C@@H]2CCC(=O)N2c2ccc(-c3noc(C(F)(F)F)n3)c(F)c2)n1` [Example 333, (5S)-1-{3-fluoro-4-[5-(trifluoromethyl)-1,2,4-oxadiazol-3-yl]phenyl}-5-(3-methyl-1,2,4-oxadiazol-5-yl)pyrrolidin-2-one]: the IC50 on HDAC8 was found to be 6.7 µM; on HDAC1, 3.3 µM.
In the same order, the values of `O=C([C@@H]1CCC(=O)N1c1cc(F)c(-c2noc(C(F)(F)F)n2)cc1F)N1CCCc2ccccc21` [Example 334, (5S)-1-{2,5-difluoro-4-[5-(trifluoromethyl)-1,2,4-oxadiazol-3-yl]phenyl}-5-(3,4-dihydroquinolin-1(2H)-ylcarbonyl)pyrrolidin-2-one] are 19 µM and 4.4 µM.
For `O=C([C@@H]1CCC(=O)N1c1cc(F)c(-c2noc(C(F)(F)F)n2)cc1F)N1CCc2ccccc2C1` [Example 335, (5S)-1-{2,5-difluoro-4-[5-(trifluoromethyl)-1,2,4-oxadiazol-3-yl]phenyl}-5-(3,4-dihydroisoquinolin-2(1H)-ylcarbonyl)pyrrolidin-2-one], the IC50 was determined as 7.4 µM at HDAC8 and 1.2 µM at HDAC1.
Taken in the same sequence, the figures for `O=C([C@@H]1CCC(=O)N1c1cc(F)c(-c2noc(C(F)(F)F)n2)cc1F)N1CCCC1` [Example 336, (5S)-1-{2,5-difluoro-4-[5-(trifluoromethyl)-1,2,4-oxadiazol-3-yl]phenyl}-5-(pyrrolidin-1-ylcarbonyl)pyrrolidin-2-one] were 26 µM and 10 µM.
With `CC1(C)CCCN1C(=O)[C@@H]1CCC(=O)N1c1cc(F)c(-c2noc(C(F)(F)F)n2)cc1F` [Example 339, (5S)-1-{2,5-difluoro-4-[5-(trifluoromethyl)-1,2,4-oxadiazol-3-yl]phenyl}-5-[(2,2-dimethylpyrrolidin-1-yl)carbonyl]pyrrolidin-2-one], the 50% inhibitory concentration (IC50) turned out to be 45 µM on HDAC8 and 13 µM at HDAC1.
